According to US20120142763A1, “NUCLEIC ACID DELIVERY COMPOSITIONS AND METHODS OF USE THEREOF” (THE REGENTS OF THE UNIVERSITY OF CALIFORNIA, priority 2009, published 2012):
Like-named read-outs stand apart in the source and are kept apart here.

Tests used:
[1] = Solubility of charge-protected oligonucleotide in salt solution; assay type: physicochemical
[2] = system: GFP

In the case of “SEQ ID NO:23: RNAi against GFP comprising SEQ ID NO:23 having N1-U-SATE nucleotides; 21 mer charge-protected oligonucleotide (CCACUACCUGAGCACCCAGTTTUGGUGAUGGACUCGUGGGUC; contains N1-U-SATE charge-protected nucleotides, positions not given here)”, the “solubility in salt solution” value [1] is reported as “soluble in salt solution”, the “inhibition of expression of GFP (dose response curves)” value ([2]; at 24 hours) is reported as “inhibition of expression of GFP” and the “inhibition of expression of GFP (dose response curves)” value ([2]; at 48 hours) is reported as “inhibition of expression of GFP”.
